Patent US20240287106A1, “Method for Producing Fluorescent Probe Library Using Solid-Phase Extraction and Method of Measuring Enzyme Activity Using Same” (The University of Tokyo, priority 2021, published 2024)

What was measured:
Format in all cases: biochemical
[1] = biological target: T1, CD13 (Homo sapiens, UniProt P15144); experiment: Measurement of human plasma sample using CD13 probe in microdevice; conditions: 50 μM probe, 1000 fold dilution plasma; for Fluorescence intensity of human plasma samples, patient with pancreatic cancer compared with healthy subject (CD13 probe): microdevice; for AUC of ROC curve for the number of wells in which CD13 is considered to be enclosed: plasma of 30 patients with pancreatic cancer vs 30 healthy subjects, 37° C. 4 hours, wells >= Average+3SD of background fluorescence
T1 construct: human plasma samples collected from 30 patients with pancreatic cancer and 30 healthy subjects; from tissue; host or cells: human plasma (pancreatic cancer patients and healthy subjects)
Procedure: 1. Arg-PMAC as a CD13 probe was diluted with an assay buffer to 100 μM. The composition of the buffer is 100 mM HEPES-NaOH (pH 7.4), 1 mM MgCl2, 1 mM DTT, 3 mM TritonX-100.
2. Next, human plasma samples collected from 30 patients with pancreatic cancer and 30 healthy subjects were diluted 500 times with the above assay buffer, and mixed in an equal amount with the diluted solution of the CD13 probe. At this time, the final concentrations are 50 μM for the CD13 probe and 1000 fold dilution for the human plasma sample.
(§1) 3. The mixed solution was then added to a microdevice, followed by the addition of sealing oil to enclose the solution in each well.
4. The microdevice in which the solution was enclosed was incubated at 37° C. for 4 hours, and then the fluorescence intensity of each well was measured with a fluorescence microscope.

[2] = biological target: T2, DPP4 (Homo sapiens, UniProt P27487); experiment: Measurement of human plasma sample using DPP4 probe in microdevice; conditions: 50 μM probe, 1000 fold dilution plasma
T2 construct: human plasma samples collected from 30 patients with pancreatic cancer and 30 healthy subjects; from tissue; host or cells: human plasma (pancreatic cancer patients and healthy subjects)
Procedure: 1. Glu-Pro-PMAC as a DPP4 probe was diluted with an assay buffer to 100 μM. The composition of the buffer is 100 mM HEPES-NaOH (pH 7.4), 1 mM MgCl2, 1 mM DTT, 3 mM TritonX-100.
2. Next, human plasma samples collected from 30 patients with pancreatic cancer and 30 healthy subjects were diluted 500 times with the above assay buffer, and mixed in an equal amount with the diluted solution of the DPP4 probe. At this time, the final concentrations are 50 μM for the DPP4 probe and 1000 fold dilution for the human plasma sample.
as §1
4. The microdevice in which the solution was enclosed was incubated at 25° C. for 2 hours, and then the fluorescence intensity of each well was measured with a fluorescence microscope.

[3] = biological target: T3, ENPP3 (Homo sapiens, UniProt O14638); experiment: Activity measurement using a purified enzyme of ENPP3 on a plate reader; conditions: Tris-HCl buffer pH 9.3, 1 mM MgCl2, 0.5% CHAPS, 10 μM probe, ENPP3 9.9 μg/mL
T3 sequence (O14638 1-875): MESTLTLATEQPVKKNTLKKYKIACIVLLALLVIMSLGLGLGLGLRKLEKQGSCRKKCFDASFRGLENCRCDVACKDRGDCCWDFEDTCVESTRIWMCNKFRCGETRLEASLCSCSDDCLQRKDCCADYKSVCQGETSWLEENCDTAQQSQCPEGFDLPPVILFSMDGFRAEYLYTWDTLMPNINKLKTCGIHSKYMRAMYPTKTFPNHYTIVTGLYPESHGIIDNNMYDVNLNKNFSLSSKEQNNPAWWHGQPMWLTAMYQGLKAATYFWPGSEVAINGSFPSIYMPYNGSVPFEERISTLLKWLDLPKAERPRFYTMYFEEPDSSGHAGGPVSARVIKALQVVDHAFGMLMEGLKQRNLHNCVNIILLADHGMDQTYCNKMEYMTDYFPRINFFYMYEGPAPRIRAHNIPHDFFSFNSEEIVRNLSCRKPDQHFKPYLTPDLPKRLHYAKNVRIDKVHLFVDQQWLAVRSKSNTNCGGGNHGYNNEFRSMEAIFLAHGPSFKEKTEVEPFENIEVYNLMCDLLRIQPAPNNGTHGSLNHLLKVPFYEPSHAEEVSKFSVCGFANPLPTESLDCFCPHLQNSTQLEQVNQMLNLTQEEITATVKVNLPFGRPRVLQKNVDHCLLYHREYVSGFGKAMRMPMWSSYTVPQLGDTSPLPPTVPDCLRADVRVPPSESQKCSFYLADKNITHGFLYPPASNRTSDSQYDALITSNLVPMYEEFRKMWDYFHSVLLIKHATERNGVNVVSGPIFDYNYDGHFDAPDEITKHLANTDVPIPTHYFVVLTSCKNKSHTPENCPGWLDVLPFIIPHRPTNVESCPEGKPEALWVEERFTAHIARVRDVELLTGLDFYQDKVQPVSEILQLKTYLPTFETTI
Procedure: The activity measurement of PMUM-dCMP obtained in Synthesis Example 7 was performed using a purified enzyme of ENPP3 on a plate reader.
The assay was performed with a Tris-HCl buffer (pH 9.3) containing 1 mM MgCl2, 0.5% w/w CHAPS, 10 μM PMUM-dCMP, and ENPP3 (recombinant, 9.9 μg/mL).

[4] = biological target: T3, ENPP3; experiment: Measurement of human plasma sample using ENPP probe in microdevice; design: human plasma samples collected from six patients with pancreatic cancer and six healthy subjects; from tissue; host or cells: human plasma (pancreatic cancer patients and healthy subjects)
Procedure: 1. PMUM-dCMP as an ENPP probe was diluted with an assay buffer to 200 μM. The composition of the assay buffer is 100 mM Tris-HCl (pH 9.3), 1 mM MgCl2, 0.5% (w/v) CHAPS.
2. Next, human plasma samples collected from six patients with pancreatic cancer and six healthy subjects were diluted 250 times with the above assay buffer, and mixed in an equal amount with the diluted solution of the ENPP probe. At this time, the final concentrations are 100 μM for the ENPP probe and 500 fold dilution for the human plasma sample.
as §1
4. The microdevice in which the solution was enclosed was incubated at 25° C. for 40 minutes, and then the fluorescence intensity of each well was measured with a fluorescence microscope.
Specifically, in this example, an ROC curve for determination based on the enzyme activity of ENPP determined based on the number of wells with 2500 AU or more is created, and when a threshold is subtracted at the time when the number of wells with 2500 AU or more is 23, the sensitivity is 83% and the specificity is 100% (FIG. 16). It is possible to determine pancreatic cancer by such an ROC curve.

[5] = threshold: number of wells with 2500 AU or more is 23

T1 sequence (P15144 whole entry): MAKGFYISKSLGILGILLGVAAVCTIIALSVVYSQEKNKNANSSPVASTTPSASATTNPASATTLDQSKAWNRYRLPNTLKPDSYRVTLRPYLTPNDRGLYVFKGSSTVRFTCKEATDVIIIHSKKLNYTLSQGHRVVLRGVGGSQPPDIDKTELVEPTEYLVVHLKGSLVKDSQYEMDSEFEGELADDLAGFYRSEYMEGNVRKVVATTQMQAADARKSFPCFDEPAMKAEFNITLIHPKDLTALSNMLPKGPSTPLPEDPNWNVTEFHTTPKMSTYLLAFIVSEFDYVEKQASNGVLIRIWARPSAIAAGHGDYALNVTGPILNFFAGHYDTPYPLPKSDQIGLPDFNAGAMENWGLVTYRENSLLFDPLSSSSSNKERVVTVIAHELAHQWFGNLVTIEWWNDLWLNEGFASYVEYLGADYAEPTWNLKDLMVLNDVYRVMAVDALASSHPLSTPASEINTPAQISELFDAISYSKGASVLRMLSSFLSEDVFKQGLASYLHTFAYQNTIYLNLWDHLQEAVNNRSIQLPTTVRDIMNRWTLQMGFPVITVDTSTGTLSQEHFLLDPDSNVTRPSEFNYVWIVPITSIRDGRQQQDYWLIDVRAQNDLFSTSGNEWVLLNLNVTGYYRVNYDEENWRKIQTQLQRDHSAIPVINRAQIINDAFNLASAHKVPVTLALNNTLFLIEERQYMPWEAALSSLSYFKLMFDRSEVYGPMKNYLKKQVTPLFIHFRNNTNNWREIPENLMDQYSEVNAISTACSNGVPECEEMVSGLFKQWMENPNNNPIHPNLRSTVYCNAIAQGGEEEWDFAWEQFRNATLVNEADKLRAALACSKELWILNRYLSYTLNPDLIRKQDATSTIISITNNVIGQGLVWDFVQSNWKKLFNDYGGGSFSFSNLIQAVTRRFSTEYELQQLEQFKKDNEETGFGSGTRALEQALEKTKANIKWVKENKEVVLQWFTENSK
T2 sequence (P27487 39-766 limits assumed): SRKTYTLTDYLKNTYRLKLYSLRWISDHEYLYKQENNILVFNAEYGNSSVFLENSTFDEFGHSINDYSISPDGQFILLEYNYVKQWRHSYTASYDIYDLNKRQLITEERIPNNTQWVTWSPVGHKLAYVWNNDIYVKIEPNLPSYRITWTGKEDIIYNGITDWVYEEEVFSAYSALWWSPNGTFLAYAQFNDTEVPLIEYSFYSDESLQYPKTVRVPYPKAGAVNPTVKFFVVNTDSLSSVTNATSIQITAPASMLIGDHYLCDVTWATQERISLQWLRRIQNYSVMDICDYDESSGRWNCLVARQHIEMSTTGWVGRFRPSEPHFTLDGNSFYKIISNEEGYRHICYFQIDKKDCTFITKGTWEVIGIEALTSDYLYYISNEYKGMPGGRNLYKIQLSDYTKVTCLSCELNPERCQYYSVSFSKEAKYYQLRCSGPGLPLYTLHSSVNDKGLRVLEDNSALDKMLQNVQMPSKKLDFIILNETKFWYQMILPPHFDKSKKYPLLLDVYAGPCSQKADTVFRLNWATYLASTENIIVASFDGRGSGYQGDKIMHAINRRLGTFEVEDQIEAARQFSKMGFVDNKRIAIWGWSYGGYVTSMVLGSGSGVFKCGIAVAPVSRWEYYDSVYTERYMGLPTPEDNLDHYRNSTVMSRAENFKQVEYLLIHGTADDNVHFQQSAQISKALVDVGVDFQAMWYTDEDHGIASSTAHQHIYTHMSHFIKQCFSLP

Q: N=C(N)NCCC[C@H](N)C(=O)Nc1ccc2c(CP(=O)(O)O)cc(=O)oc2c1 [Arg-PMAC] was tested. Which “Fluorescence intensity of human plasma samples, patient with pancreatic cancer compared with healthy subject (CD13 probe)” value [1] did it give?
A: a significant difference was observed

Q: And the “AUC of ROC curve for the number of wells in which CD13 is considered to be enclosed” value [1]?
A: 0.554

Q: Which “Fluorescence intensity of human plasma samples, patient with pancreatic cancer compared with healthy subject (DPP4 probe)” value ([2]; microdevice) does the source give for N[C@@H](CCC(=O)O)C(=O)N1CCC[C@@H]1C(=O)Nc1ccc2c(CP(=O)(O)O)cc(=O)oc2c1 [Glu-Pro-PMAC] here?
A: a significant difference was observed

Q: And the “AUC of ROC curve for the ratio of the number of wells belonging to the two peaks (DPP4 considered enclosed)” value ([2]; plasma of 30 patients with pancreatic cancer vs 30 healthy subjects, 25° C. 2 hours)?
A: 0.724

Q: What does the source list for CSCC[C@H](N)C(=O)Nc1ccc2c(CP(=O)(O)O)cc(=O)oc2c1 [Met-PMAC]?
A: Fluorescence intensity of human plasma samples, patient with pancreatic cancer compared with healthy subject (CD13 probe) [1]: a significant difference was observed; AUC of ROC curve for the number of wells in which CD13 is considered to be enclosed [1]: 0.619

Q: How did the “Fluorescence intensity (FI) on adding ENPP3 compared with adding no ENPP3” value [3] turn out when NC1C=CN(C2CC(O)C(COP(=O)(O)Oc3ccc4c(CP(=O)(O)O)cc(=O)oc4c3)O2)C(=O)N1 (centres unmarked) [PMUM-dCMP] was run?
A: remarkable increase in fluorescence intensity

Q: What about the “Fluorescence intensity of human plasma samples, patient with pancreatic cancer compared with healthy subject (ENPP probe)” value ([4]; microdevice, 100 μM probe, 500 fold dilution plasma) of the same molecule?
A: a significant difference was observed

Q: What about the “Number of wells with fluorescence intensity equal to or higher than 2500 AU, patients with pancreatic cancer compared with healthy subjects” value ([4]; plasma of six patients and six healthy subjects, 100 μM probe, 500 fold dilution plasma, 25° C. 40 minutes) of the same molecule?
A: significant increase in the number of wells

Q: And the “Sensitivity of ROC determination of pancreatic cancer” value [4, 5]?
A: 83%

Q: What about the “Specificity of ROC determination of pancreatic cancer” value [4, 5] of the same molecule?
A: 100%
